# Tested on: MCF-7
# Experiment: Cancer activity screen (MTT cell survival), MCF-7
# Format: cell-based
# Conditions: Homo sapiens, MCF7
row,SMILES,IC50 [µM]
1,CCn1c(=O)/c(=C2\Sc3c(ccc(F)c3F)N2C)s/c1=C\c1cccc[n+]1Cc1ccccc1,2.1 ± 0.43
2,CCn1c(=O)/c(=C2\Sc3ccccc3N2C)s/c1=C\c1cccc[n+]1Cc1ccccc1,1.49 ± 0.22
3,CCn1c(=O)/c(=C2\Sc3c(cccc3C(F)(F)F)N2C)s/c1=C\c1cccc[n+]1Cc1ccc(F)c(F)c1,5.35 ± 1.54
4,CCn1c(=O)/c(=C2\Sc3ccc(OC)cc3N2C)s/c1=C\c1cccc[n+]1Cc1ccccc1,1.6 ± 0.36
5,CCn1c(=O)/c(=C2\Sc3cccc(F)c3N2C)s/c1=C\c1scc[n+]1Cc1ccccc1 [drawing 56],0.96 ± 0.2
6,CCn1c(=O)/c(=C2\Sc3ccc(Cl)cc3N2C)s/c1=C\c1scc[n+]1Cc1ccccc1,0.83 ± 0.23
7,CN1/C(=c2\s/c(=C\c3cccc[n+]3Cc3ccccc3)n(Cc3ccccc3)c2=O)Sc2ccccc21,2.15 ± 0.68
8,CCn1c(=O)/c(=C2\Sc3cccc(F)c3N2C)s/c1=C\c1cccc[n+]1Cc1ccc(CNC(=O)OC(C)(C)C)cc1,1.39 ± 0.24
9,CN1/C(=c2\s/c(=C\c3cc(Cl)cc[n+]3C)n(Cc3ccccc3)c2=O)Sc2ccccc21,2.81 ± 1.01
10,CCn1c(=O)/c(=C2\Sc3c(Cl)cccc3N2C)s/c1=C\c1scc[n+]1Cc1ccccc1,1.05 ± 0.79
11,CCn1c(=O)/c(=C2\Sc3c(cccc3C(F)(F)F)N2C)s/c1=C\c1cccc[n+]1Cc1ccccc1,2.31 ± 0.43
12,CCn1c(=O)/c(=C2\Sc3ccccc3N2C)s/c1=C\c1cccc[n+]1Cc1ccc(F)c(F)c1,9.6 ± 2.98
13,CCn1c(=O)/c(=C2\Sc3ccccc3N2C)s/c1=C\c1ccc(F)c[n+]1C,> 30
14,CCn1c(=O)/c(=C2\Sc3cccc(Cl)c3N2C)s/c1=C\c1cccc[n+]1Cc1ccccc1,1.37 ± 0.27
15,CCn1c(=O)/c(=C2\Sc3cc(Cl)ccc3N2C)s/c1=C\c1scc[n+]1Cc1ccccc1,0.71 ± 0.22
16,CCn1c(=O)/c(=C2\Sc3cccc(Cl)c3N2C)s/c1=C\c1scc[n+]1Cc1ccccc1 [drawing 57],0.83 ± 0.19

# Same assay, conditions: Homo sapiens, MCF7; second table
row,SMILES,IC50 [µM]
1,CCn1c(=O)/c(=C2\Sc3cc(OC(F)(F)F)ccc3N2C)s/c1=C\c1scc[n+]1Cc1ccccc1,0.4 ± 0.04
2,CCn1c(=O)/c(=C2\Sc3ccccc3N2C)s/c1=C\c1scc[n+]1CC,0.8 ± 0.1
3,CCn1c(=O)/c(=C2\Sc3cc(F)ccc3N2C)s/c1=C\c1cccc[n+]1CC,0.9 ± 0.3
4,CCn1c(=O)/c(=C2\Sc3ccc(F)cc3N2C)s/c1=C\c1cccc[n+]1CC,2.4 ± 0.6
5,CCn1c(=O)/c(=C2\Sc3cccc(F)c3N2C)s/c1=C\c1cccc[n+]1CC,1 ± 0.3
6,CCn1c(=O)/c(=C2\Sc3ccccc3N2C)s/c1=C\c1scc[n+]1Cc1ccccc1,0.6 ± 0.04
7,CCn1c(=O)/c(=C2\Sc3c(F)cccc3N2C)s/c1=C\c1cccc[n+]1CC,0.8 ± 0.1

# Tested on: MEF (C57BL/6)
# Experiment: Cell survival, MEF
# Format: cell-based
# Conditions: Mus musculus; read-out: IC50/μM MEF (C57BL/6)
row,SMILES,IC50 [µM]
1,CCn1c(=O)/c(=C2\Sc3ccccc3N2C)s/c1=C\c1cccc[n+]1Cc1ccccc1,14.6 ± 1.17
2,CCn1c(=O)/c(=C2\Sc3cccc(F)c3N2C)s/c1=C\c1scc[n+]1Cc1ccccc1 [drawing 56],8.29 ± 0.66
3,CCn1c(=O)/c(=C2\Sc3c(Cl)cccc3N2C)s/c1=C\c1scc[n+]1Cc1ccccc1,> 30
4,CCn1c(=O)/c(=C2\Sc3cccc(Cl)c3N2C)s/c1=C\c1cccc[n+]1Cc1ccccc1,6.46 ± 0.7
5,CCn1c(=O)/c(=C2\Sc3cc(Cl)ccc3N2C)s/c1=C\c1scc[n+]1Cc1ccccc1,23.9 ± 1.28
6,CCn1c(=O)/c(=C2\Sc3cccc(Cl)c3N2C)s/c1=C\c1scc[n+]1Cc1ccccc1 [drawing 57],6.96 ± 0.63

# Same assay, conditions: Mus musculus; second table; read-out: IC50/μM MEF (C57BL/6)
row,SMILES,IC50 [µM]
1,CCn1c(=O)/c(=C2\Sc3ccccc3N2C)s/c1=C\c1cc[n+](C)cc1,> 50
2,CCn1c(=O)/c(=C2\Sc3cc(OC(F)(F)F)ccc3N2C)s/c1=C\c1scc[n+]1Cc1ccccc1,1.2 ± 0.1
3,CCn1c(=O)/c(=C2\Sc3ccccc3N2C)s/c1=C\c1scc[n+]1CC,> 30
4,CCn1c(=O)/c(=C2\Sc3cc(F)ccc3N2C)s/c1=C\c1cccc[n+]1CC,> 30
5,CCn1c(=O)/c(=C2\Sc3ccc(F)cc3N2C)s/c1=C\c1cccc[n+]1CC,> 30
6,CCn1c(=O)/c(=C2\Sc3cccc(F)c3N2C)s/c1=C\c1cccc[n+]1CC,> 30
7,CCn1c(=O)/c(=C2\Sc3ccccc3N2C)s/c1=C\c1scc[n+]1Cc1ccccc1,6.8 ± 0.4
8,CCn1c(=O)/c(=C2\Sc3c(F)cccc3N2C)s/c1=C\c1cccc[n+]1CC,27.1 ± 3

# Tested on: HeLa
# Experiment: Cancer activity screen (MTT cell survival), HeLa
# Format: cell-based
# Conditions: Homo sapiens
row,SMILES,IC50 [µM]
1,CCn1c(=O)/c(=C2\Sc3c(ccc(F)c3F)N2C)s/c1=C\c1cccc[n+]1Cc1ccccc1,6 ± 0.64
2,CCn1c(=O)/c(=C2\Sc3ccccc3N2C)s/c1=C\c1cccc[n+]1Cc1ccccc1,3.29 ± 0.36
3,CCn1c(=O)/c(=C2\Sc3c(cccc3C(F)(F)F)N2C)s/c1=C\c1cccc[n+]1Cc1ccc(F)c(F)c1,8.47 ± 0.89
4,CCn1c(=O)/c(=C2\Sc3ccc(OC)cc3N2C)s/c1=C\c1cccc[n+]1Cc1ccccc1,3.63 ± 0.32
5,CCn1c(=O)/c(=C2\Sc3cccc(F)c3N2C)s/c1=C\c1scc[n+]1Cc1ccccc1 [drawing 56],2.23 ± 0.28
6,CCn1c(=O)/c(=C2\Sc3ccc(Cl)cc3N2C)s/c1=C\c1scc[n+]1Cc1ccccc1,4.32 ± 0.43
7,CN1/C(=c2\s/c(=C\c3cccc[n+]3Cc3ccccc3)n(Cc3ccccc3)c2=O)Sc2ccccc21,5.89 ± 0.87
8,CCn1c(=O)/c(=C2\Sc3cccc(F)c3N2C)s/c1=C\c1cccc[n+]1Cc1ccc(CNC(=O)OC(C)(C)C)cc1,7.6 ± 0.99
9,CCn1c(=O)/c(=C2\Sc3c(Cl)cccc3N2C)s/c1=C\c1scc[n+]1Cc1ccccc1,3.93 ± 0.51
10,CCn1c(=O)/c(=C2\Sc3c(cccc3C(F)(F)F)N2C)s/c1=C\c1cccc[n+]1Cc1ccccc1,21.1 ± 3.96
11,CCn1c(=O)/c(=C2\Sc3ccccc3N2C)s/c1=C\c1cccc[n+]1Cc1ccc(F)c(F)c1,12.3 ± 1.21
12,CCn1c(=O)/c(=C2\Sc3ccccc3N2C)s/c1=C\c1ccc(F)c[n+]1C,15 ± 0.98
13,CCn1c(=O)/c(=C2\Sc3cccc(Cl)c3N2C)s/c1=C\c1cccc[n+]1Cc1ccccc1,3.7 ± 0.35
14,CCn1c(=O)/c(=C2\Sc3cc(Cl)ccc3N2C)s/c1=C\c1scc[n+]1Cc1ccccc1,0.83 ± 0.2
15,CCn1c(=O)/c(=C2\Sc3cccc(Cl)c3N2C)s/c1=C\c1scc[n+]1Cc1ccccc1 [drawing 57],1.87 ± 0.23

# Tested on: MCF-10A
# Experiment: Cancer activity screen (MTT cell survival), MCF-10A
# Format: cell-based
# Conditions: Homo sapiens
row,SMILES,IC50 [µM]
1,CCn1c(=O)/c(=C2\Sc3c(ccc(F)c3F)N2C)s/c1=C\c1cccc[n+]1Cc1ccccc1,1.36 ± 0.16
2,CCn1c(=O)/c(=C2\Sc3ccccc3N2C)s/c1=C\c1cccc[n+]1Cc1ccccc1,1.46 ± 0.15
3,CCn1c(=O)/c(=C2\Sc3c(cccc3C(F)(F)F)N2C)s/c1=C\c1cccc[n+]1Cc1ccc(F)c(F)c1,4.77 ± 0.48
4,CCn1c(=O)/c(=C2\Sc3ccc(OC)cc3N2C)s/c1=C\c1cccc[n+]1Cc1ccccc1,1.74 ± 0.19
5,CCn1c(=O)/c(=C2\Sc3cccc(F)c3N2C)s/c1=C\c1scc[n+]1Cc1ccccc1 [drawing 56],1.07 ± 0.05
6,CN1/C(=c2\s/c(=C\c3cccc[n+]3Cc3ccccc3)n(Cc3ccccc3)c2=O)Sc2ccccc21,1.34 ± 0.16
7,CN1/C(=c2\s/c(=C\c3cc(Cl)cc[n+]3C)n(Cc3ccccc3)c2=O)Sc2ccccc21,1.12 ± 0.04
8,CCn1c(=O)/c(=C2\Sc3c(cccc3C(F)(F)F)N2C)s/c1=C\c1cccc[n+]1Cc1ccccc1,2.45 ± 0.26
9,CCn1c(=O)/c(=C2\Sc3ccccc3N2C)s/c1=C\c1cccc[n+]1Cc1ccc(F)c(F)c1,3.06 ± 0.38
10,CCn1c(=O)/c(=C2\Sc3ccccc3N2C)s/c1=C\c1ccc(F)c[n+]1C,5.34 ± 0.26
11,CCn1c(=O)/c(=C2\Sc3cccc(Cl)c3N2C)s/c1=C\c1cccc[n+]1Cc1ccccc1,0.61 ± 0.09
12,CCn1c(=O)/c(=C2\Sc3cccc(Cl)c3N2C)s/c1=C\c1scc[n+]1Cc1ccccc1 [drawing 57],1.14 ± 0.15

# Tested on: MDA-MB-231
# Experiment: Cancer activity screen (MTT cell survival), MDA-MB-231
# Format: cell-based
# Conditions: Homo sapiens
row,SMILES,IC50 [µM]
1,CCn1c(=O)/c(=C2\Sc3c(ccc(F)c3F)N2C)s/c1=C\c1cccc[n+]1Cc1ccccc1,2.64 ± 0.35
2,CCn1c(=O)/c(=C2\Sc3ccccc3N2C)s/c1=C\c1cccc[n+]1Cc1ccccc1,1.02 ± 0.2
3,CCn1c(=O)/c(=C2\Sc3c(cccc3C(F)(F)F)N2C)s/c1=C\c1cccc[n+]1Cc1ccc(F)c(F)c1,6.16 ± 1.33
4,CCn1c(=O)/c(=C2\Sc3ccc(OC)cc3N2C)s/c1=C\c1cccc[n+]1Cc1ccccc1,1.43 ± 0.19
5,CCn1c(=O)/c(=C2\Sc3cccc(F)c3N2C)s/c1=C\c1scc[n+]1Cc1ccccc1 [drawing 56],0.4 ± 0.03
6,CCn1c(=O)/c(=C2\Sc3ccc(Cl)cc3N2C)s/c1=C\c1scc[n+]1Cc1ccccc1,0.62 ± 0.1
7,CN1/C(=c2\s/c(=C\c3cccc[n+]3Cc3ccccc3)n(Cc3ccccc3)c2=O)Sc2ccccc21,1.8 ± 0.34
8,CCn1c(=O)/c(=C2\Sc3cccc(F)c3N2C)s/c1=C\c1cccc[n+]1Cc1ccc(CNC(=O)OC(C)(C)C)cc1,1.99 ± 0.33
9,CN1/C(=c2\s/c(=C\c3cc(Cl)cc[n+]3C)n(Cc3ccccc3)c2=O)Sc2ccccc21,2.83 ± 0.26
10,CCn1c(=O)/c(=C2\Sc3c(Cl)cccc3N2C)s/c1=C\c1scc[n+]1Cc1ccccc1,0.55 ± 0.05
11,CCn1c(=O)/c(=C2\Sc3c(cccc3C(F)(F)F)N2C)s/c1=C\c1cccc[n+]1Cc1ccccc1,3.46 ± 0.39
12,CCn1c(=O)/c(=C2\Sc3ccccc3N2C)s/c1=C\c1cccc[n+]1Cc1ccc(F)c(F)c1,4.4 ± 0.39
13,CCn1c(=O)/c(=C2\Sc3ccccc3N2C)s/c1=C\c1ccc(F)c[n+]1C,7.82 ± 0.78
14,CCn1c(=O)/c(=C2\Sc3cccc(Cl)c3N2C)s/c1=C\c1cccc[n+]1Cc1ccccc1,0.72 ± 0.18
15,CCn1c(=O)/c(=C2\Sc3cc(Cl)ccc3N2C)s/c1=C\c1scc[n+]1Cc1ccccc1,0.39 ± 0.03
16,CCn1c(=O)/c(=C2\Sc3cccc(Cl)c3N2C)s/c1=C\c1scc[n+]1Cc1ccccc1 [drawing 57],0.41 ± 0.02

# Same assay, conditions: Homo sapiens, second table
row,SMILES,IC50 [µM]
1,CCn1c(=O)/c(=C2\Sc3ccccc3N2C)s/c1=C\c1cc[n+](C)cc1,3.01 ± 0.26
2,CCn1c(=O)/c(=C2\Sc3cc(OC(F)(F)F)ccc3N2C)s/c1=C\c1scc[n+]1Cc1ccccc1,0.8 ± 0.1
3,CCn1c(=O)/c(=C2\Sc3ccccc3N2C)s/c1=C\c1scc[n+]1CC,2.2 ± 0.2
4,CCn1c(=O)/c(=C2\Sc3cc(F)ccc3N2C)s/c1=C\c1cccc[n+]1CC,8.3 ± 1.1
5,CCn1c(=O)/c(=C2\Sc3ccc(F)cc3N2C)s/c1=C\c1cccc[n+]1CC,13.3 ± 0.7
6,CCn1c(=O)/c(=C2\Sc3cccc(F)c3N2C)s/c1=C\c1cccc[n+]1CC,3.8 ± 0.2
7,CCn1c(=O)/c(=C2\Sc3ccccc3N2C)s/c1=C\c1scc[n+]1Cc1ccccc1,0.5 ± 0.1
8,CCn1c(=O)/c(=C2\Sc3c(F)cccc3N2C)s/c1=C\c1cccc[n+]1CC,2.8 ± 0.2

# Source: US9808448B2, “Pharmaceutical compounds and use of same in cancer and tauopathies” (THE REGENTS OF THE UNIVERSITY OF MICHIGAN, priority 2013, dated 2017)
